Laboratory results: US20140243239A1, “MULTIPLEXED KINASE INHIBITOR BEADS AND USES THEREOF” (University of North Carolina at Chapel Hill, priority 2011, published 2014)

Columns and labels:
BT474 cells = assay: BT474 luminescent cell viability assay; assay type: cell-based; settings: 50 nM lapatinib, 0-72 hours
Method: The different colors represent different time points of (50 nM) lapatinib treatment relative to DMSO control-treated cells. From light to dark, the time points are 4, 24, and 48 hrs of lapatinib treatment.

MEK1 = MEK1 activation in HPAC pancreatic cancer cells; assay type: cell-based
Method: Kinome reprogramming in pancreatic cancer—cell type and inhibitor specific. The kinome response to drug in 3 pancreatic cancer cell lines (HPAC, AsPC-1, HPAF-II) was also evaluated using 3 kinase inhibitors that are currently in Phase I/II clinical trials: BKM120 (Novartis), an oral pan-class 1 PI3K inhibitor, […] (Glaxo Smith-Kline), an ATP competitive PI3K/mTOR inhibitor, and GSK1120212, a reversible allosteric inhibitor of MEK1/2 (Glaxo Smith-Kline). The kinome response for GSK2126458 and GSK1120212 was compared using MIB/MS and RTK arrays to determine if kinome reprogramming was inhibitor-specific. […] Thus, kinome reprogramming is target-specific.

MEK-ERK pathway = assay: Window trial in TNBC patients (LCCC 1122), MIB/MS of tumor biopsies; assay type: in vivo, human; settings: 7-day post-treatment versus pre-treatment biopsy, preliminary
Text: Kinome reprogramming in TNBC patients treated with the MEK inhibitor GSK1120212 is being evaluated (LCCC 1122).

MEK = settings: Gilmartin et al. 2011; cited from earlier work
AKT = AKT phosphorylation in pancreatic cancer PDX tumors; assay type: in vivo, mice; settings: daily treatment, harvested 4-6 h after last dose
Method: Kinome reprogramming in PDX model of pancreatic cancer after BKM120 treatment: The kinome response of a pancreatic cancer PDX to BKM120 treatment was evaluated using MIB/MS. […] Kinome reprogramming in PDX models: De-identified tumors from patients are grafted into immunecompromised mice and passaged. All tumors are characterized using microarray and mutational analysis. Hematoxylin & eosin staining of a patient tumor at the time of operation and after several passages over a 1.5 yr period showing similar glandular architecture with surrounding stroma. Variable levels of pERK1/2 and pAKT(S473) was seen across pancreatic cancer PDX. PDX P100422 with moderate levels of pAKT was selected for BKM120 treatment. pAKT expression in BKM120 versus vehicle treated PDX tumor. Mice were treated daily with either vehicle control (n=3) or BKM120 (n=3) and tumors were harvested 4-6 h after the last dose. PDX tumors were treated daily for 28 days. […] The 3 vehicle control and 3 BKM120 treated tumors showing inhibition of pAKT were analyzed using MIB/MS. Activation and repression of the kinome in response to PI3K inhibition in PDX P100422.

PDX P100422 = assay: Tumor growth of pancreatic cancer PDX P100422; assay type: in vivo, mice
Text: Kinome reprogramming in PDX models: De-identified tumors from patients are grafted into immunecompromised mice and passaged. All tumors are characterized using microarray and mutational analysis. Hematoxylin & eosin staining of a patient tumor at the time of operation and after several passages over a 1.5 yr period showing similar glandular architecture with surrounding stroma. Variable levels of pERK1/2 and pAKT(S473) was seen across pancreatic cancer PDX. PDX P100422 with moderate levels of pAKT was selected for BKM120 treatment. pAKT expression in BKM120 versus vehicle treated PDX tumor. Mice were treated daily with either vehicle control (n=3) or BKM120 (n=3) and tumors were harvested 4-6 h after the last dose. PDX tumors were treated daily for 28 days. […] The 3 vehicle control and 3 BKM120 treated tumors showing inhibition of pAKT were analyzed using MIB/MS. Activation and repression of the kinome in response to PI3K inhibition in PDX P100422.

## CS(=O)(=O)CCNCc1ccc(-c2ccc3ncnc(Nc4ccc(OCc5cccc(F)c5)c(Cl)c4)c3c2)o1 [lapatinib]
BT474 cells
  growth of BT474 cells: growth inhibition

## CC(=O)Nc1cccc(-n2c(=O)n(C3CC3)c(=O)c3c(Nc4ccc(I)cc4F)n(C)c(=O)c(C)c32)c1 [GSK1120212]
MEK1
  MEK1 activation: inhibited MEK1 activation
MEK-ERK pathway
  MEK-ERK pathway in patient tumors: effectively inhibited
  kinome reprogramming in patient tumors: upregulation of MRCKG, FER and DDR1
MEK
  fold lower affinity of MEK phosphorylated at the activation loop serines than nonphosphorylated MEK: 20 fold

## Nc1cc(C(F)(F)F)c(-c2cc(N3CCOCC3)nc(N3CCOCC3)n2)cn1 [BKM120]
AKT
  AKT phosphorylation: inhibited AKT phosphorylation
PDX P100422; small sample size
  effectiveness in the PDX model: not clearly effective
PDX P100422; treated daily for 28 days
  number of tumors showing tumor growth inhibition relative to controls: 4 tumors
